Values of other authors as cited in patent publication US20110212944A1, “2-OXO-1-PYRROLIDINE DERIVATIVES” (priority 2008, published 2011).

CCC[C@@H]1CC(=O)N([C@@H](CC)C(N)=O)C1 [brivaracetam, 2(S)-[2-oxo-4(R)-propylpyrrolidin-1-yl]butyramide]
time after drug administration within which adverse events subsided (after drug administration): ≤ 24 h
severity of treatment emergent adverse events (primarily CNS-related events (dizziness, somnolence, headache etc.)): mild to moderate
